Residues, ends and D or L forms follow the SMILES beside them. *: point of attachment. Doxorubicin(3'-N) = COc1cccc2c1C(=O)c1c(O)c3c(c(O)c1C2=O)C[C@@](O)(C(=O)CO)C[C@@H]3O[C@H]1C[C@H](N*)[C@H](O)[C@H](C)O1; Fmoc = O=C(OCC1c2ccccc2-c2ccccc21)*
Columns and labels:
[1] = system: dsDNA (DNA, duplex) CGTACGCGTACGCGTACGCG/CGCGTACGCGTACGCGTACG; assay: fluorescence quenching titration (Lineweaver–Burk, ex 490 nm, em 594 nm); conditions: 10 mM Tris-HCl pH 7.2, 25 °C; 1.94 µM compound; average of two experiments
[2] = system: dsDNA (DNA, duplex) CGTACGCGTACGCGTACGCG/CGCGTACGCGTACGCGTACG; assay: ITC (single set of identical sites); conditions: 10 mM Tris-HCl pH 7.2, 25 °C
[3] = system: dsDNA (DNA, duplex) CGTACGCGTACGCGTACGCG/CGCGTACGCGTACGCGTACG; assay: UV-Vis absorbance titration (Benesi–Hildebrand, 480 nm); conditions: 10 mM Tris-HCl pH 7.2, 25 °C; 18 µM compound, no added salt stated
[4] = system: collagenase IV (containing MMP-2/-9); assay: Enzymatic cleavage of MMP-2/-9-cleavable octapeptide by collagenase IV (HPLC); type: in vitro ADME; conditions: 37 °C, APMA-activated 1 mM collagenase IV in HBSS, HPLC read-out
Experimental: The MMP-2/-9-cleavable peptide was degraded by collagenase IV (containing MMP-2/-9) in a time-dependent manner. […] In order to investigate how fast the octapeptide cleaved, the aliquots were removed after 2, 8, and 12 h.
The MMP-2/-9-cleavable octapeptide Fmoc–Gly–Pro–Leu–Gly–Leu–Ala–Gly–Gly was evaluated by enzymatic digestion with the use of collagenase IV (containing MMP-2/-9). In the first step, 1 mL of HBSS was added to […] of collagenase IV (205 u/mg) and mixed to complete dissolution. Activation of collagenase IV was performed using 1 mM APMA in 0.15 M NaOH for 1.5 h at 37 °C [24, 43]. The octapeptide stock solution was added to activated 1 mM collagenase IV and incubated at 37 °C. The aliquots were removed and analyzed by HPLC, between 2 and 12 h. The HPLC Dionex Ultimate 3000 (Waltham, MA, USA) was equipped with a bioZen Intact XB-C8 column (3.6 μm, 2.1 × 150 mm; Phenomenex, Aschaffenburg, Germany). The flow rate was set at 0.5 mL/min with a mobile phase consisting of solvent A (0.1% TFA) and solvent B (100% ACN). The gradient was as follows: 0–5 min, 0% of solvent B; 5–8 min, 0–30% of solvent B. The hydrolysis product was detected by MALDI TOF/TOF 5800 mass spectrometry (AB Sciex, Darmstadt, Germany).

[5] = system: dsDNA (20 bp, 5′-CGTACGCGTACGCGTACGCG-3′ duplex); assay: UV-Vis spectrophotometric titration with dsDNA (Benesi–Hildebrand); type: binding; conditions: 10 mM Tris-HCl pH 7.2, 25 °C
[6] = system: dsDNA (20 bp, 5′-CGTACGCGTACGCGTACGCG-3′ duplex); assay: Steady-state fluorescence quenching titration with dsDNA; type: binding; conditions: 10 mM Tris-HCl pH 7.2, 25 °C
dsDNA = assay: Time-resolved fluorescence lifetime measurement; type: physicochemical; conditions: λex 420 nm, λem 594 nm, 20 °C, ligand 5 µM, constant regardless of dsDNA concentration (0–0.25 µM)
[7] = system: dsDNA (20 bp, 5′-CGTACGCGTACGCGTACGCG-3′ duplex); assay: Isothermal titration calorimetry (ITC) with dsDNA; type: binding; conditions: 10 mM Tris-HCl pH 7.2, 25 °C

Row | KA [1] [M⁻¹] | logKITC ([2]; 0.470 mM compound into 0.005 mM dsDNA) | KA [3] [M⁻¹] | MMP-2/-9 cleaved product Fmoc–Gly–Pro–Leu–Gly detected (efficiency of enzymatic digestion) ([4]; 2 h incubation) [%] | MMP-2/-9 cleaved product Fmoc–Gly–Pro–Leu–Gly detected (efficiency of enzymatic digestion) ([4]; 8 h incubation) [%] | MMP-2/-9 cleaved product Fmoc–Gly–Pro–Leu–Gly detected (efficiency of enzymatic digestion) ([4]; 12 h incubation) [%] | substrate (octapeptide) observed after incubation with collagenase IV ([4]; 12 h incubation) [%] | free energy of binding ΔG = −RTlnKA ([5]; from spectrophotometric KA) [kJ/mol] | logKITC ([2]; 0.174 mM compound into 0.002 mM dsDNA) | number of binding sites n (Scatchard, slope of log[(F0−F)/F] vs log[Q]) ([6]; fluorescence titration, ligands bound per dsDNA molecule) | fluorescence lifetime τ0 (dsDNA) [ns] | SMILES | intrinsic association constant KA (ligand…dsDNA), Benesi–Hildebrand ([5]; UV-Vis absorbance at 480 nm, ligand 18 µM, dsDNA up to 1.90 µM) [M⁻¹] | bimolecular quenching rate constant kq (Stern–Volmer) ([6]; fluorescence quenching by dsDNA, λex 490 nm, emission 594 nm, ligand 1.94 µM) [M⁻¹ s⁻¹] | molar ratio of complex (ligand to dsDNA) from ITC ([7]; standard deviation in parentheses) | logKITC ([7]; ITC, single set of identical binding sites model, SD in parentheses) | ΔHITC ([7]; ITC, SD in parentheses) | TΔSITC ([7]; ITC, calculated from ΔGITC = ΔHITC − TΔSITC) [kJ/mol] | ΔGITC ([7]; ITC, ΔGITC = −RTlnKITC, SD in parentheses)
1 | 5.6e+06 | 4.24 (±0.09) log (unit not printed) | 540000 | – | – | – | – | – | – | – | – | COc1cccc2c1C(=O)c1c(O)c3c(c(O)c1C2=O)C[C@@](O)(C(=O)CO)C[C@@H]3O[C@H]1C[C@H](NC(=O)CNC(=O)CNC(=O)[C@H](C)NC(=O)[C@@H](N)CC(C)C)[C@H](O)[C@H](C)O1 (H-LAGG-{Doxorubicin(3'-N)}) | – | – | – | – | – | – | –
2 | – | – | – | 52.54 | 69.53 | 82.42 | 17.43 | – | – | – | – | CC(C)C[C@H](NC(=O)CNC(=O)[C@H](CC(C)C)NC(=O)[C@@H]1CCCN1C(=O)CNC(=O)OCC1c2ccccc2-c2ccccc21)C(=O)N[C@@H](C)C(=O)NCC(=O)NCC(=O)O [Fmoc–Gly–Pro–Leu–Gly–Leu–Ala–Gly–Gly] (Fmoc-GPLGLAGG-OH) | – | – | – | – | – | – | –
3 | 1.1e+07 | – | 1.1e+06 | – | – | – | – | -34.4 | 6.03 (±0.04) log (unit not printed) | approximately 1.0 | 1.057 ± 0.022 | COc1cccc2c1C(=O)c1c(O)c3c(c(O)c1C2=O)C[C@@](O)(C(=O)CO)C[C@@H]3O[C@H]1C[C@H](N)[C@H](O)[C@H](C)O1 [DOX, Doxorubicin] | 1.1e+06 | 9.37e+15 | 7.29 (±0.09) | 6.03 (±0.04) | −9.52 (±0.17) kcal/mol | -5.44 | −8.26 (±0.05) kcal/mol

Source: paper PMC7554696 (International Journal of Molecular Sciences, 2020)
